From article PMC2819980 (Chemistry & biology, 2010)

Tests used:
Assay type in all cases: biochemical
FrbI [1] = biological target: T1, FrbI (Streptomyces rubellomurinus, UniProt Q0ZQ40); experiment: in vitro hydrolysis
FrbH = FrbH (Streptomyces rubellomurinus, UniProt Q0ZQ41); experiment: HPLC / LC-MS product analysis; conditions: 10 mM MgCl2, HEPES pH 7.25, 30 °C
FrbI [2] = biological target: T1, FrbI; experiment: HPLC / LC-MS product analysis, coupled with FrbH, FrbF and FrbG; conditions: 10 mM MgCl2, HEPES pH 7.25, 30 °C; substrate formed in situ

FrbH, sequence (Q0ZQ41 whole entry): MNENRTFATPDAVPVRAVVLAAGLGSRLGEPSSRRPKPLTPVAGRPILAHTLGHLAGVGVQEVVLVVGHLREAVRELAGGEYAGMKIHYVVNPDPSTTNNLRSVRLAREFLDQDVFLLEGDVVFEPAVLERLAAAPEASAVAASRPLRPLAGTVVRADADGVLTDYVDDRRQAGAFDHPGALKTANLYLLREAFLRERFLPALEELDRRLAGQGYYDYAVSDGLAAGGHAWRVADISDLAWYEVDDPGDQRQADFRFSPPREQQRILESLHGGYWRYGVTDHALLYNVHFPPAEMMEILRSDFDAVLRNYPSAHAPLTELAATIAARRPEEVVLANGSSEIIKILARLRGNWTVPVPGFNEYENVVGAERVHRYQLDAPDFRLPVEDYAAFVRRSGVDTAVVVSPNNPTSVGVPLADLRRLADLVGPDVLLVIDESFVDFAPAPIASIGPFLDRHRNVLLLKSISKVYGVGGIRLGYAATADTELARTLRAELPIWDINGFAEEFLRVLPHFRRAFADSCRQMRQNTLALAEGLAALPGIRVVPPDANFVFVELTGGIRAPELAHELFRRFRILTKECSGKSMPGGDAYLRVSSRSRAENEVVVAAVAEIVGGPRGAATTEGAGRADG
T1 sequence (Q0ZQ40 whole entry): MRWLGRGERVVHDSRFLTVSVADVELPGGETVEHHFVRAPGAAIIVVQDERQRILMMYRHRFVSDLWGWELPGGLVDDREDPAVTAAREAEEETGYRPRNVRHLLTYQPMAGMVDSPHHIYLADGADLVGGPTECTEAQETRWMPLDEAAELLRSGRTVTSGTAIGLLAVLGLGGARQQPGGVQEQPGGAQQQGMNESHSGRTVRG

**Q.** Nc1ccn([C@@H]2O[C@H](COP(=O)(O)OP(=O)(O)OP(=O)(O)O)[C@@H](O)[C@H]2O)c(=O)n1 [CTP] was tested. Which in vitro hydrolysis (FrbI [1]) did it give?
**A.** even showed a small amount of activity toward CTP

**Q.** What about the “HPLC / LC-MS product analysis” value (FrbH; 2 mM (±)-2APn) of the same compound?
**A.** FrbH condenses 2APn and CTP to form CMP-5'-2APn

**Q.** Which “HPLC / LC-MS product analysis” value (FrbH; 1 mM CTP) does the source give for NC(CCP(=O)(O)O)C(=O)O (racemic) [VI, 2APn] here?
**A.** FrbH condenses 2APn and CTP to form CMP-5'-2APn

**Q.** Which “HPLC / LC-MS product analysis, coupled with FrbH, FrbF and FrbG” value (FrbI [2]) does the source give for CC(=O)N(O)CCCP(=O)(O)OP(=O)(O)OC[C@H]1O[C@@H](n2ccc(N)nc2=O)[C@H](O)[C@@H]1O [IX, CMP-5'-FR-900098] here?
**A.** FrbI catalyzes the hydrolysis of CMP-5'-FR-900098 to form FR-900098 and CMP
